Data published in US9884868B2, “TGF-beta inhibitors” (Rigel Pharmaceuticals, Inc., priority 2015, dated 2018).

Key:
[1] = molecular target: HIS-TGF-βR2 WT (Homo sapiens (Human), UniProt P37173); assay: HTRF probe displacement assay with HIS-TGF-βR2 WT; conditions: read-out: TGFBr2 IC50; HTRF probe displacement, 1 nM HIS-TGF-βR2 WT, 1 hour at room temperature
[2] = molecular target: HIS-TGF-βR1 T204D (Homo sapiens (Human), UniProt P36897, T204D); assay: HTRF probe displacement assay with HIS-TGF-βR1 T204D; conditions: read-out: TGFbr1 IC50; HTRF probe displacement, 1 nM HIS-TGF-βR1 T204D, 1 hour at room temperature
Chain of HIS-TGF-βR1 T204D (P36897 34-503 T204D): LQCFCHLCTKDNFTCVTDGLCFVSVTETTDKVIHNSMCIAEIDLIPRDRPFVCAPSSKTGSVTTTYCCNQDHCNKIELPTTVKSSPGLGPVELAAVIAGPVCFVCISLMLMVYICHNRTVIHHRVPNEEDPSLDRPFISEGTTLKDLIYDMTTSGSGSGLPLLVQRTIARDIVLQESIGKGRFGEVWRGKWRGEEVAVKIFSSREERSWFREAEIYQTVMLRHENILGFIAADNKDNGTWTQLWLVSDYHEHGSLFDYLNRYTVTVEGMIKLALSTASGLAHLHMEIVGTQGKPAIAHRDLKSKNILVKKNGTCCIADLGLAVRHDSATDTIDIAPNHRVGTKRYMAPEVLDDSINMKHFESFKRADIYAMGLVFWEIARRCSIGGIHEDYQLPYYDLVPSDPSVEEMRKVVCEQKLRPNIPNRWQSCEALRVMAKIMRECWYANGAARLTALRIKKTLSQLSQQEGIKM

Chain of HIS-TGF-βR2 WT (P37173 23-567): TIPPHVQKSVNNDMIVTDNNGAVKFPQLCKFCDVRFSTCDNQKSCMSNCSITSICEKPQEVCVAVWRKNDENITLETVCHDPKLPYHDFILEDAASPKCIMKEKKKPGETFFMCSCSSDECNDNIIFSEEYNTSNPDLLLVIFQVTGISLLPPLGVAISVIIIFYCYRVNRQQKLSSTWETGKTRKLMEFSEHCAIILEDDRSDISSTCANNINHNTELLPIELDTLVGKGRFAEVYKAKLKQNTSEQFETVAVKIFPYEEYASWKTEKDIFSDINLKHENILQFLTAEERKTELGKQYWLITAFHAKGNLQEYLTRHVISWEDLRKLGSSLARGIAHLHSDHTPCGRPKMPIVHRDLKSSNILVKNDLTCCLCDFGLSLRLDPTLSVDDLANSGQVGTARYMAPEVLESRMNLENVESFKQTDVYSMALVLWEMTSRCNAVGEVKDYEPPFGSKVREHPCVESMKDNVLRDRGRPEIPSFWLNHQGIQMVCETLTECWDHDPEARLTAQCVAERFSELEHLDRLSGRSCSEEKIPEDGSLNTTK

IC50 [1] | IC50 [2] | Structure (SMILES)
> 15000 nM | 3.7 nM | NC(=O)c1cnc2ccc(-c3c(-c4ccc(F)cc4)ncn3C3CC(F)(F)C3)cn12 [180′, 6-(1-(3,3-difluorocyclobutyl)-4-(4-fluorophenyl)-1H-imidazol-5-yl)imidazo[1,2-a]pyridine-3-carboxamide]
> 15000 nM | 244 nM | CC(C)(C)OC(=O)N1CC(n2cnc(-c3ccc(F)cc3)c2-c2ccc3ncc(C(N)=O)n3n2)C1 [195A′, tert-butyl 3-(5-(3-carbamoylimidazo[1,2-b]pyridazin-6-yl)-4-(4-fluorophenyl)-1H-imidazol-1-yl)azetidine-1-carboxylate]
> 15000 nM | 3 nM | CN(C)C(=O)c1cnc2ccc(-c3c(-c4ccc(F)cc4)ncn3CC(F)F)nn12 [207′, 6-(1-(2,2-difluoroethyl)-4-(4-fluorophenyl)-1H-imidazol-5-yl)-N,N-dimethylimidazo[1,2-b]pyridazine-3-carboxamide]
> 15000 nM | 1.2 nM | O=C(NC1CC1)c1cnc2ccc(-c3c(-c4ccc(F)cc4)ncn3CC(F)F)nn12 [208′, N-cyclopropyl-6-(1-(2,2-difluoroethyl)-4-(4-fluorophenyl)-1H-imidazol-5-yl)imidazo[1,2-b]pyridazine-3-carboxamide]
> 15000 nM | 1 nM | NC(=O)c1cnc2ccc(-c3c(-c4cc(Cl)c(F)cc4F)ncn3CC(F)F)cn12 [235′, 6-(4-(5-chloro-2,4-difluorophenyl)-1-(2,2-difluoroethyl)-1H-imidazol-5-yl)imidazo[1,2-a]pyridine-3-carboxamide]
> 15000 nM | 521 nM | CS(=O)(=O)Nc1ccccc1-c1ncn(CC(F)F)c1-c1ccc2ncc(C#N)n2n1 [239′, N-(2-(5-(3-cyanoimidazo[1,2-b]pyridazin-6-yl)-1-(2,2-difluoroethyl)-1H-imidazol-4-yl)phenyl)methanesulfonamide]
> 15000 nM | 1.8 nM | N#Cc1cnc2ccc(-c3c(-c4cccc(C(F)(F)F)c4)ncn3CC(F)F)nn12 [243′, 6-(1-(2,2-difluoroethyl)-4-(3-(trifluoromethyl)phenyl)-1H-imidazol-5-yl)imidazo[1,2-b]pyridazine-3-carbonitrile]
> 15000 nM | 546 nM | N#Cc1cnc2ccc(-c3c(-c4ccc(C(F)(F)F)cc4)ncn3CC(F)F)nn12 [244′, 6-(1-(2,2-difluoroethyl)-4-(4-(trifluoromethyl)phenyl)-1H-imidazol-5-yl)imidazo[1,2-b]pyridazine-3-carbonitrile]
> 15000 nM | 49.1 nM | CC(=O)Nc1cccc(-c2ncn(CC(F)F)c2-c2ccc3ncc(C#N)n3n2)c1 [245′, N-(3-(5-(3-cyanoimidazo[1,2-b]pyridazin-6-yl)-1-(2,2-difluoroethyl)-1H-imidazol-4-yl)phenyl)acetamide]
> 15000 nM | 144 nM | N#Cc1cnc2ccc(-c3c(-c4ccccc4C(F)(F)F)ncn3CC(F)F)nn12 [246′, 6-(1-(2,2-difluoroethyl)-4-(2-(trifluoromethyl)phenyl)-1H-imidazol-5-yl)imidazo[1,2-b]pyridazine-3-carbonitrile]
> 15000 nM | 7.7 nM | CS(=O)(=O)Nc1cccc(-c2ncn(CC(F)F)c2-c2ccc3ncc(C#N)n3n2)c1 [252′, N-(3-(5-(3-cyanoimidazo[1,2-b]pyridazin-6-yl)-1-(2,2-difluoroethyl)-1H-imidazol-4-yl)phenyl)methanesulfonamide]
> 15000 nM | 752 nM | CS(=O)(=O)c1cccc(-c2ncn(CC(F)F)c2-c2ccc3ncc(C#N)n3n2)c1 [254′, 6-(1-(2,2-difluoroethyl)-4-(3-(methylsulfonyl)phenyl)-1H-imidazol-5-yl)imidazo[1,2-b]pyridazine-3-carbonitrile]
> 15000 nM | 1 nM | N#Cc1cnc2ccc(-c3c(-c4cccc(OC(F)(F)F)c4)ncn3CC(F)F)nn12 [259′, 6-(1-(2,2-difluoroethyl)-4-(3-(trifluoromethoxy)phenyl)-1H-imidazol-5-yl)imidazo[1,2-b]pyridazine-3-carbonitrile]
> 15000 nM | 8.8 nM | N#Cc1cnc2ccc(-c3c(-c4ccc(F)c(C(F)(F)F)c4)ncn3CC(F)F)nn12 [260′, 6-(1-(2,2-difluoroethyl)-4-(4-fluoro-3-(trifluoromethyl)phenyl)-1H-imidazol-5-yl)imidazo[1,2-b]pyridazine-3-carbonitrile]
> 15000 nM | 171 nM | CC(C)Oc1ccc(-c2ncn(CC(F)F)c2-c2ccc3ncc(C#N)n3n2)cc1 [263′, 6-(1-(2,2-difluoroethyl)-4-(4-isopropoxyphenyl)-1H-imidazol-5-yl)imidazo[1,2-b]pyridazine-3-carbonitrile]
> 15000 nM | 9.8 nM | CC(C)(O)c1cccc(-c2ncn(CC(F)F)c2-c2ccc3ncc(C#N)n3n2)c1 [265′, 6-(1-(2,2-difluoroethyl)-4-(3-(2-hydroxypropan-2-yl)phenyl)-1H-imidazol-5-yl)imidazo[1,2-b]pyridazine-3-carbonitrile]

IC50 [1] | IC50 [2] | Structure (SMILES)
> 15000 nM | 7 nM | CCOC(=O)c1cnc2ccc(-c3c(-c4ccc(F)cc4)ncn3CC(F)F)cn12 [274C′, ethyl 6-(1-(2,2-difluoroethyl)-4-(4-fluorophenyl)-1H-imidazol-5-yl)imidazo[1,2-a]pyridine-3-carboxylate]
> 15000 nM | 988 nM | Fc1ccc(-c2ncn(CC(F)F)c2-c2ccc3ncc(CNC4CC(F)(F)C4)n3c2)cc1 [276′, N-((6-(1-(2,2-difluoroethyl)-4-(4-fluorophenyl)-1H-imidazol-5-yl)imidazo[1,2-a]pyridin-3-yl)methyl)-3,3-difluorocyclobutanamine]
> 15000 nM | 3.2 nM | NC(=O)CNC(=O)c1cnc2ccc(-c3c(-c4ccc(F)cc4)ncn3CC(F)F)cn12 [280′]
> 15000 nM | 542 nM | CC(=O)Nc1nc(-c2ccc(F)cc2)c(-c2ccc3ncc(C#N)n3c2)n1CC(F)F [297′]
> 15000 nM | 52.7 nM | COC(=O)N1CC(n2cnc(-c3ccc(F)cc3)c2-c2ccc3ncc(C#N)n3n2)C1 [Example 190′, methyl 3-(5-(3-cyanoimidazo[1,2-b]pyridazin-6-yl)-4-(4-fluorophenyl)-1H-imidazol-1-yl)azetidine-1-carboxylate]
> 15000 nM | 72.7 nM | CC(=O)N1CC(n2cnc(-c3ccc(F)cc3)c2-c2ccc3ncc(C#N)n3n2)C1 [Example 191′, 6-(1-(1-acetylazetidin-3-yl)-4-(4-fluorophenyl)-1H-imidazol-5-yl)imidazo[1,2-b]pyridazine-3-carbonitrile]
> 15000 nM | 229 nM | N#Cc1cnc2ccc(-c3c(-c4ccc(F)cc4)ncn3C3CN(C(=O)C4CC4)C3)nn12 [Example 192′, 6-(1-(1-(cyclopropanecarbonyl)azetidin-3-yl)-4-(4-fluorophenyl)-1H-imidazol-5-yl)imidazo[1,2-b]pyridazine-3-carbonitrile]
> 15000 nM | 227 nM | CC(C)(C)NC(=O)N1CC(n2cnc(-c3ccc(F)cc3)c2-c2ccc3ncc(C#N)n3n2)C1 [Example 193′, N-(tert-butyl)-3-(5-(3-cyanoimidazo[1,2-b]pyridazin-6-yl)-4-(4-fluorophenyl)-1H-imidazol-1-yl)azetidine-1-carboxamide]
> 15000 nM | 436 nM | CC(C)(C)NC(=O)N1CC(n2cnc(-c3ccc(F)cc3)c2-c2ccc3ncc(C(N)=O)n3n2)C1 [Example 195′, 6-(1-(1-(tert-butylcarbamoyl)azetidin-3-yl)-4-(4-fluorophenyl)-1H-imidazol-5-yl)imidazo[1,2-b]pyridazine-3-carboxamide]
> 15000 nM | 11.9 nM | CC(=O)NCc1cnc2ccc(-c3c(-c4ccc(F)cc4)ncn3CC(F)F)nn12 [Example 197′, N-((6-(1-(2,2-difluoroethyl)-4-(4-fluorophenyl)-1H-imidazol-5-yl)imidazo[1,2-b]pyridazin-3-yl)methyl)acetamide]
> 15000 nM | 5.3 nM | O=C(NCc1cnc2ccc(-c3c(-c4ccc(F)cc4)ncn3CC(F)F)nn12)C1CC1 [Example 198′, N-((6-(1-(2,2-difluoroethyl)-4-(4-fluorophenyl)-1H-imidazol-5-yl)imidazo[1,2-b]pyridazin-3-yl)methyl)cyclopropanecarboxamide]
> 15000 nM | 9.5 nM | CC(C)(C)NC(=O)NCc1cnc2ccc(-c3c(-c4ccc(F)cc4)ncn3CC(F)F)nn12 [Example 199′, 1-(tert-butyl)-3-((6-(1-(2,2-difluoroethyl)-4-(4-fluorophenyl)-1H-imidazol-5-yl)imidazo[1,2-b]pyridazin-3-yl)methyl)urea]
> 15000 nM | 12 nM | COC(=O)NCc1cnc2ccc(-c3c(-c4ccc(F)cc4)ncn3CC(F)F)nn12 [Example 200′, methyl ((6-(1-(2,2-difluoroethyl)-4-(4-fluorophenyl)-1H-imidazol-5-yl)imidazo[1,2-b]pyridazin-3-yl)methyl)carbamate]
> 15000 nM | 5 nM | CC(C)OC(=O)NCc1cnc2ccc(-c3c(-c4ccc(F)cc4)ncn3CC(F)F)nn12 [Example 201′, isopropyl ((6-(1-(2,2-difluoroethyl)-4-(4-fluorophenyl)-1H-imidazol-5-yl)imidazo[1,2-b]pyridazin-3-yl)methyl)carbamate]
> 15000 nM | 43.8 nM | CC(C)(C)C(=O)NCc1cnc2ccc(-c3c(-c4ccc(F)cc4)ncn3CC(F)F)nn12 [Example 202′, N-((6-(1-(2,2-difluoroethyl)-4-(4-fluorophenyl)-1H-imidazol-5-yl)imidazo[1,2-b]pyridazin-3-yl)methyl)pivalamide]
> 15000 nM | 4.5 nM | COC(=O)Nc1cnc2ccc(-c3c(-c4ccc(F)cc4)ncn3CC(F)F)nn12 [Example 211′, methyl (6-(1-(2,2-difluoroethyl)-4-(4-fluorophenyl)-1H-imidazol-5-yl)imidazo[1,2-b]pyridazin-3-yl)carbamate]
